Values after ≈ are worked out from the molar mass of the structure shown.
Assays:
Mu-type opioid receptor [1] = target: T1, Mu-type opioid receptor (Homo sapiens, UniProt P35372); test: Agonist activity at human MOR expressed in CHOK1 cells assessed as […] of cAMP accumulation incubated for 45 mins by HTRF assay; format: functional, cell-based
[2] = target: T2, Sigma non-opioid intracellular receptor 1 (Homo sapiens, UniProt Q99720); test: Displacement of [3H]-(+)-pentazocine from human sigma-1 receptor expressed in HEK293 membranes incubated for 120 mins by liquid scintillation counting method
Mu-type opioid receptor [3] = target: T1, Mu-type opioid receptor; test: Agonist activity at human MOR expressed in CHOK1 cells assessed as […] of cAMP accumulation at 1 uM incubated for 45 mins by HTRF assay; format: functional, cell-based
Mu-type opioid receptor [4] = target: T1, Mu-type opioid receptor; test: biochemical
Description: Displacement of [3H]-DAMGO from human MOR expressed in CHOK1 cell membranes incubated for 60 mins by liquid scintillation counting method

Mu-type opioid receptor [5] = target: T1, Mu-type opioid receptor; test: Displacement of [3H]-DAMGO from human MOR expressed in CHOK1 cell membranes at 1 uM incubated for 60 mins by liquid scintillation counting method
[6] = target: T3, Alpha-1A adrenergic receptor (Homo sapiens) (UniProt P35348); test: Displacement of [3H]-prazosin from human alpha1A adrenoreceptor expressed in enriched membranes at 1 uM incubated for 90 mins by liquid scintillation counting method relative to control; format: cell membranes
T3 sequence (whole entry): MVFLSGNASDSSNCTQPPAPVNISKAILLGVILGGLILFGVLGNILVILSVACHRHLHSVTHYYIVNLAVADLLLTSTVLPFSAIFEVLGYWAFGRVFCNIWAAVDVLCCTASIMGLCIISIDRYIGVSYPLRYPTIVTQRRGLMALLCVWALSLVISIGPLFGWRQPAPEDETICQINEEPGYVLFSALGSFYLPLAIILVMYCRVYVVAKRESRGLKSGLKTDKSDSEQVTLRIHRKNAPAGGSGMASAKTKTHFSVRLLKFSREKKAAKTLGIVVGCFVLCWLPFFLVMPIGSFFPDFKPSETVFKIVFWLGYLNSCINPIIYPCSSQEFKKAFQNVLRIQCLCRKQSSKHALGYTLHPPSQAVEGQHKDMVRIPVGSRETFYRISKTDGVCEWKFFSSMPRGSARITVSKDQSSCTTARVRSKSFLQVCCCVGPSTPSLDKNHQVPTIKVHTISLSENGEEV

Mu-type opioid receptor [7] = target: T1, Mu-type opioid receptor; test: Agonist activity at human MOR expressed in CHOK1 cells assessed as […] of cAMP accumulation at 10 uM incubated for 45 mins by HTRF assay; format: functional, cell-based
Mu-type opioid receptor [8] = target: T1, Mu-type opioid receptor; test: Displacement of [3H]-DAMGO from human MOR expressed in CHOK1 cell membranes at 10 uM incubated for 60 mins by liquid scintillation counting method
hERG (KCNH2) = hERG (KCNH2) (Homo sapiens, UniProt Q12809); test: Inhibition of human ERG expressed in CHOK1 cells assessed as reduction in channel current at 10 uM at -80 mV holding potential by whole cell patch clamp assay relative to control; format: cell-based; conditions: CHO-K1 cells expressing human ERG
[9] = target: Voltage-gated inwardly rectifying potassium channel KCNH2 (Homo sapiens, UniProt Q12809)
Description: Inhibition of human ERG expressed in CHOK1 cells assessed as reduction in channel current at -80 mV holding potential by whole cell patch clamp assay

Mu-type opioid receptor [10] = target: T1, Mu-type opioid receptor; test: Agonist activity at human MOR expressed in CHOK1 cells assessed as […] of cAMP accumulation incubated for 45 mins by HTRF assay relative to DAMGO; format: functional, cell-based
[11] = target: T2, Sigma non-opioid intracellular receptor 1; test: Displacement of [3H]-(+)-pentazocine from human sigma-1 receptor expressed in HEK293 membranes at 1 uM incubated for 120 mins by liquid scintillation counting method relative to control
Mus musculus [12] = test: Induction of constipation in mouse assessed as effect on intestinal transit at 20 mg/kg, ip dosed 30 mins before charcoal suspension dosing and measured after 30 mins; format: organism-based; conditions: in vivo, 0.5 h
Cytochrome P450 2C19 = Cytochrome P450 2C19 (Homo sapiens, UniProt P33261); test: Inhibition of recombinant human CYP2C19 using fluorometric substrate; format: ADME; conditions: recombinant enzyme
Cytochrome P450 2E1 = Cytochrome P450 2E1 (Homo sapiens, UniProt P05181); test: Inhibition of recombinant human CYP2E1 using fluorometric substrate; format: ADME; conditions: recombinant enzyme
Cytochrome P450 2D6 = Cytochrome P450 2D6 (Homo sapiens, UniProt P10635); test: Inhibition of recombinant human CYP2D6 using fluorometric substrate; format: ADME; conditions: recombinant enzyme
Cytochrome P450 2C9 = Cytochrome P450 2C9 (Homo sapiens, UniProt P11712); test: Inhibition of recombinant human CYP2C9 using fluorometric substrate; format: ADME; conditions: recombinant enzyme
[13] = Clearance in human liver microsomes; format: ADME, Microsome; conditions: read-out: CLH
[14] = Basicity constant, pKa of the compound; format: physicochemical
[15] = target: 5-hydroxytryptamine receptor 2B (Homo sapiens, UniProt P41595); test: Inhibition of 5HT2B receptor (unknown origin)
Cytochrome P450 3A4 = Cytochrome P450 3A4 (Homo sapiens, UniProt P08684); test: Inhibition of recombinant human CYP3A4 using fluorometric substrate; format: ADME; conditions: recombinant enzyme
[16] = Thermodynamic solubility in pH 2 buffer; format: physicochemical; conditions: read-out: Therm_solubility
Mus musculus [17] = test: Antinociceptive activity in ip dosed mouse assessed as reduction in mechanical nociception measured after 30 mins post dose by paw pressure pain test; format: functional; conditions: 0.5 h
[18] = target: T4, Alpha-1A adrenergic receptor (Homo sapiens, UniProt P35348); test: Displacement of [3H]-prazosin from human alpha1A adrenoreceptor expressed in enriched membranes incubated for 90 mins by liquid scintillation counting method; format: cell membranes
T4 sequence (P35348 whole entry): T3 sequence (whole entry)

Cytochrome P450 1A2 = target: T5, Cytochrome P450 1A2 (Homo sapiens, UniProt P05177); test: Inhibition of recombinant human CYP1A2 using fluorometric substrate; format: ADME; conditions: recombinant enzyme
T5 sequence (P05177 whole entry): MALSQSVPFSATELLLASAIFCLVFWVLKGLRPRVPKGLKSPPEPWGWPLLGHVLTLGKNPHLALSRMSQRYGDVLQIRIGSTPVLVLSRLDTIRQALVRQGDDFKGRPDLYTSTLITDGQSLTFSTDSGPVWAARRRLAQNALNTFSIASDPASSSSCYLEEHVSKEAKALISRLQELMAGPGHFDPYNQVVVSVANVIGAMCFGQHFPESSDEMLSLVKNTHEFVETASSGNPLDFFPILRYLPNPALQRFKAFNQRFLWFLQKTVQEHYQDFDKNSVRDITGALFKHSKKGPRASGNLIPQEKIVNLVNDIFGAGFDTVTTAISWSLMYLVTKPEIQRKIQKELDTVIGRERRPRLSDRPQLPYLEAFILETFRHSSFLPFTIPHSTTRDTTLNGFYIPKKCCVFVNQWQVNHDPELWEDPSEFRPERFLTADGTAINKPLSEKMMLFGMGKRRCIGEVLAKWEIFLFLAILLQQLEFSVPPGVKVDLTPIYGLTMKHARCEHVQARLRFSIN

[19] = Lipophilicity, log Pof the compound; format: physicochemical; conditions: octanol/water
[20] = Thermodynamic solubility in pH 7.4 buffer; format: physicochemical; conditions: read-out: Therm_solubility
Mus musculus [21] = test: Antinociceptive activity in orally dosed mouse assessed as reduction in mechanical nociception measured after 30 mins post dose by paw pressure pain test; format: functional; conditions: po, 0.5 h
Mus musculus [22] = test: Induction of constipation in mouse assessed as effect on intestinal transit at 10 mg/kg, po dosed 30 mins before charcoal suspension dosing and measured after 30 mins; format: organism-based; conditions: in vivo, 0.5 h

T1 sequence (P35372 whole entry): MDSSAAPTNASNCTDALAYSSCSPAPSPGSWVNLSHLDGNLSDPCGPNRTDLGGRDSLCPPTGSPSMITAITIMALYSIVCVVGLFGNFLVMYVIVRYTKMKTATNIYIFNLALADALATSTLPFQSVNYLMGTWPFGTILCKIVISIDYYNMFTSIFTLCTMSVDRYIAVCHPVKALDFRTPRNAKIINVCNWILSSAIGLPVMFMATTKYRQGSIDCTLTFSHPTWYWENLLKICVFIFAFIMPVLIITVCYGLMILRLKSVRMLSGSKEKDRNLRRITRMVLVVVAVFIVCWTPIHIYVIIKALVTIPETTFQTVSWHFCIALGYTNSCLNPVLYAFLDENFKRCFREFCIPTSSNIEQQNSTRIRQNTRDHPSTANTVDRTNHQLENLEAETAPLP
T2 sequence (Q99720 whole entry): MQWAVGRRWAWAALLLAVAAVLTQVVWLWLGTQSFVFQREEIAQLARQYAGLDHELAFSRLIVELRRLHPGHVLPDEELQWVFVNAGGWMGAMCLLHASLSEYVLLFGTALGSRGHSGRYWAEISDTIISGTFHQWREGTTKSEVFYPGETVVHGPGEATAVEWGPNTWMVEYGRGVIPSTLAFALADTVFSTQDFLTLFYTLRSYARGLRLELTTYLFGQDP
Sequence of Voltage-gated inwardly rectifying potassium channel KCNH2 (Q12809 whole entry): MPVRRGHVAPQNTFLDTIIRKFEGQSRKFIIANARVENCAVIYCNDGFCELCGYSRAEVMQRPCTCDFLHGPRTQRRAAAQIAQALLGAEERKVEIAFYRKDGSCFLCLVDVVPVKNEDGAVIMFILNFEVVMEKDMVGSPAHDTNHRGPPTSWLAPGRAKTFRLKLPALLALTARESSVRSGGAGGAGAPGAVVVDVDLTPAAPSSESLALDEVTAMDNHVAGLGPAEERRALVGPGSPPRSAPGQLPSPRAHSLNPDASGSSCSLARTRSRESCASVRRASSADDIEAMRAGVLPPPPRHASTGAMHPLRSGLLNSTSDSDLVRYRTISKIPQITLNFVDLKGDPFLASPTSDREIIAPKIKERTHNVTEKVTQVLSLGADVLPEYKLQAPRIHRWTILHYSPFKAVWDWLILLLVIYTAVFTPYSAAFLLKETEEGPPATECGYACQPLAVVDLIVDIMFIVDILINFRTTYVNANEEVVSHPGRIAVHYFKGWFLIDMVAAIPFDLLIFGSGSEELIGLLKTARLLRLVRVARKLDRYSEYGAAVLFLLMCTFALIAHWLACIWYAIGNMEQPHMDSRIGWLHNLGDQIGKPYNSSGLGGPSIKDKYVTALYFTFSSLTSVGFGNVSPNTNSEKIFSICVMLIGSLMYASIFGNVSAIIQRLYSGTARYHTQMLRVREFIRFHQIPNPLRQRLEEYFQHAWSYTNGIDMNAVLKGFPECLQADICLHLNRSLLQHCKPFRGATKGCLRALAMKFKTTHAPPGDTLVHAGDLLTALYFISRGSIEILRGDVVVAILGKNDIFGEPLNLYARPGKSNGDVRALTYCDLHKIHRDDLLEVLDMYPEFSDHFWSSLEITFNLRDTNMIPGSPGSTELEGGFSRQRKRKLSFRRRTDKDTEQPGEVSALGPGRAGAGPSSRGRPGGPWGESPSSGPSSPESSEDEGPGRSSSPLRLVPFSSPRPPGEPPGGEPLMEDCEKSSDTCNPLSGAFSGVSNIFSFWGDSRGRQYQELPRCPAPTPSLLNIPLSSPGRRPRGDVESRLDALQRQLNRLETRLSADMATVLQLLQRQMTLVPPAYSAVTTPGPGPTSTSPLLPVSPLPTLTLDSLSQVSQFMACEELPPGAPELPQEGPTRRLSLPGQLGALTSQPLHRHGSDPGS
Sequence of hERG (KCNH2) (Q12809 whole entry): as above
Sequence of Cytochrome P450 2C19 (P33261 whole entry): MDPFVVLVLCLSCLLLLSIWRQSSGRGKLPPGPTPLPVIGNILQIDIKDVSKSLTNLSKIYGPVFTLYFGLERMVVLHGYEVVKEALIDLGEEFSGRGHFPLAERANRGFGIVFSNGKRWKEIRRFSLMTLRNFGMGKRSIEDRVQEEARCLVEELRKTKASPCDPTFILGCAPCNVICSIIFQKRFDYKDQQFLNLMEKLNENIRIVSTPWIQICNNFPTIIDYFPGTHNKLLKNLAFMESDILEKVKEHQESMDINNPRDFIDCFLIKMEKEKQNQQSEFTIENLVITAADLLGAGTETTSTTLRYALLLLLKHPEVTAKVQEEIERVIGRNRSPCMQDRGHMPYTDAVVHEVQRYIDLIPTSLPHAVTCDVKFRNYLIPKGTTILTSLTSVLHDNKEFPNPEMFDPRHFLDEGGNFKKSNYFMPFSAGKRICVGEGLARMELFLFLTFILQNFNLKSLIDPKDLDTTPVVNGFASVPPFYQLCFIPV
Sequence of Cytochrome P450 2D6 (P10635 whole entry): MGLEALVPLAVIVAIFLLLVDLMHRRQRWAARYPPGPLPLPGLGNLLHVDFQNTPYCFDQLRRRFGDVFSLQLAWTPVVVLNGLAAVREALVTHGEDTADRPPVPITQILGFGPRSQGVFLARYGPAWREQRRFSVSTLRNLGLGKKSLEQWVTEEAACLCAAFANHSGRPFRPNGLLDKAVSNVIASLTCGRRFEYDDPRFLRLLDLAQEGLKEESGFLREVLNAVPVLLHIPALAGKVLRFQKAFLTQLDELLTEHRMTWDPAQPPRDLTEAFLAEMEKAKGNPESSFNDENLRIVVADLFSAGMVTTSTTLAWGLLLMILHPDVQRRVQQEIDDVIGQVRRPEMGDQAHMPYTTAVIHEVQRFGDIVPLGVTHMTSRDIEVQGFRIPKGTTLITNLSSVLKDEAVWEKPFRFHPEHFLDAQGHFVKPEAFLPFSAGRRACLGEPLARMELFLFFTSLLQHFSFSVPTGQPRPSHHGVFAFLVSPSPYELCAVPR
Sequence of Cytochrome P450 2E1 (P05181 whole entry): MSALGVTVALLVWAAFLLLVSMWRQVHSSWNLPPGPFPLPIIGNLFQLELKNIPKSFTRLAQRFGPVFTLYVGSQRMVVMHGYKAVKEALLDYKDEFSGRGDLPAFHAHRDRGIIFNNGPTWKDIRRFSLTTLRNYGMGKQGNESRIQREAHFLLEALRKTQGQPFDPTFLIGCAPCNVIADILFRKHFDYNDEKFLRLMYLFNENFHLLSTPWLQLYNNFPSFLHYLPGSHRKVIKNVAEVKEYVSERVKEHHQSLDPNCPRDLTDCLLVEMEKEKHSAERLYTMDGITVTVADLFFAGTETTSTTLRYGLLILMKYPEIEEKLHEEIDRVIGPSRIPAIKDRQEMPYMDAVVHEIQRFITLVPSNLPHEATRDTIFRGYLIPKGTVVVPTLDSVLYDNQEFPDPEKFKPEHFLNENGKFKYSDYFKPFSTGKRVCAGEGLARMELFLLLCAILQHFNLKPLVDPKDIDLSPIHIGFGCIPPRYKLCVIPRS
Sequence of 5-hydroxytryptamine receptor 2B (P41595 whole entry): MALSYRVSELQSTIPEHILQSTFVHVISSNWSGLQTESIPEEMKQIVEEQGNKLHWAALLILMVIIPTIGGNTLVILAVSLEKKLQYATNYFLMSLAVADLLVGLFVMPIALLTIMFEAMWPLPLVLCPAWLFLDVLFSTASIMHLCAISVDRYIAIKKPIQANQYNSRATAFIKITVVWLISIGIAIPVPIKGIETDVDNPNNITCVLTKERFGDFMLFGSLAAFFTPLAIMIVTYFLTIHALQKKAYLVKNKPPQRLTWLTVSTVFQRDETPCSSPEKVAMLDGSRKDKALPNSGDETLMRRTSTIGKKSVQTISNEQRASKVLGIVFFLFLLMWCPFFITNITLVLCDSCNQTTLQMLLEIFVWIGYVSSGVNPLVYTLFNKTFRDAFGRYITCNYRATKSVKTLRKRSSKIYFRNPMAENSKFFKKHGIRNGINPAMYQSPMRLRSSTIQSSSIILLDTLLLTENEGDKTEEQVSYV

Compound | EC50 (Mu-type opioid receptor [1]) | Ki [2] | Activity (Mu-type opioid receptor [3]) | Ki (Mu-type opioid receptor [4]) | inhibition (Mu-type opioid receptor [5]) | inhibition [6] | further results
CC(=O)Nc1ccc(CCN2CCC3(CC2)CN(c2ccccc2)C(=O)C(C)O3)cc1 (stereo unspecified) | > 1 µM | 0.237 µM | < 50% | > 1 µM | < 50% | 60% | –
Cc1cc(OCCN2CCOCC2)nn1-c1ccc2ccccc2c1 | – | – | – | – | – | – | Activity (Mu-type opioid receptor [7]): < 50%
O=C(CCCN1CCC(O)(c2ccc(Cl)cc2)CC1)c1ccc(F)cc1 | – | – | – | – | – | – | inhibition (Mu-type opioid receptor [8]): < 50%; Activity (Mu-type opioid receptor [7]): < 50%
CC(=O)Nc1cccc(CCN2CCC3(CC2)CN(c2ccccc2)C(=O)C(C)O3)c1 (racemic) | 0.343 µM | 0.147 µM | – | 0.144 µM | – | 88% | inhibition at 10 µM (hERG (KCNH2)): < 50%; IC50 [9]: > 10 µM; Emax (Mu-type opioid receptor [10]): 96%
CC1OC2(CCN(CCc3ccccc3)CC2)CN(c2ccc(C(F)(F)F)nc2)C1=O (stereo unspecified) | > 1 µM | 0.009 µM | < 50% | > 1 µM | < 50% | 66% | –
O=C(O)CC1OC2(CCN(CCc3ccccc3)CC2)CN(c2ccccc2)C1=O (stereo unspecified) | > 1 µM | > 1 µM | < 50% | > 1 µM | < 50% | – | inhibition [11]: < 50%
CC1OC2(CCN(CCc3ccccc3)CC2)CN(c2ccncc2)C1=O (stereo unspecified) | > 1 µM | 0.088 µM | < 50% | > 1 µM | < 50% | 68% | –
COc1ccc(N2CC3(CCN(CCc4ccccc4)CC3)OC(C)C2=O)cc1 (stereo unspecified) | > 1 µM | 0.014 µM | < 50% | > 1 µM | < 50% | 69% | –
O=C1N(c2cccnc2C(F)(F)F)CC2(CCN(CCc3ccccc3F)CC2)OC12CC2 | – | – | – | – | – | – | inhibition at 10 µM (hERG (KCNH2)): < 50%; Activity (Mus musculus [12]): Non-Toxic; inhibition (INH) (Cytochrome P450 2C19): < 50%; IC50 [9]: > 10 µM; inhibition (INH) (Cytochrome P450 2E1): < 50%; inhibition (INH) (Cytochrome P450 2D6): < 50%; inhibition (INH) (Cytochrome P450 2C9): < 50%; microsomal CLint [13]: 20 µL/min/mg; pKa [14]: 7.82; Ki [15]: 0.754 µM; inhibition (INH) (Cytochrome P450 3A4): < 50%; solubility thermodynamic [16]: 2630 µg/mL (≈ 5.67 mM); ED50 (Mus musculus [17]): 15 mg/kg; Ki [18]: 0.47 µM; inhibition (INH) (Cytochrome P450 1A2): < 50%; logP [19]: 3.41; solubility thermodynamic [20]: 160 µg/mL (≈ 0.345 mM)
CC(=O)Nc1cccc(CCN2CCC3(CC2)CN(c2ccccc2)C(=O)[C@@H](C)O3)c1 | 0.069 µM | 0.205 µM | – | 0.046 µM | – | 90% | inhibition at 10 µM (hERG (KCNH2)): < 50%; IC50 [9]: > 10 µM; Emax (Mu-type opioid receptor [10]): 95%
COc1ccc2c3c1O[C@H]1C(=O)CC[C@@]4(O)[C@@H](C2)N(C)CC[C@]314 [OXYCODONE] | – | – | – | – | – | – | ED50 (Mus musculus [21]): 4.3 mg/kg; Activity (Mus musculus [22]): Toxic

Source: ChEMBL document CHEMBL4354824, “4-Aryl-1-oxa-4,9-diazaspiro[5.5]undecane Derivatives as Dual μ-Opioid Receptor Agonists and σ1 Receptor Antagonists for the Treatment of Pain” (J Med Chem, 2020)
